Each structure is given as a SMILES string. pIC50: −log10 of the molar value. Where only a bound is given, the exact number is not on record here.

We go through 29 molecules from US8293901B2, “MAPK/ERK kinase inhibitors” (Takeda Pharmaceutical Company Limited, priority 2006, dated 2012).

Sequence of MEK1 (Q02750 with tags, fused parts or gaps DEL33-52/S218E/S222D): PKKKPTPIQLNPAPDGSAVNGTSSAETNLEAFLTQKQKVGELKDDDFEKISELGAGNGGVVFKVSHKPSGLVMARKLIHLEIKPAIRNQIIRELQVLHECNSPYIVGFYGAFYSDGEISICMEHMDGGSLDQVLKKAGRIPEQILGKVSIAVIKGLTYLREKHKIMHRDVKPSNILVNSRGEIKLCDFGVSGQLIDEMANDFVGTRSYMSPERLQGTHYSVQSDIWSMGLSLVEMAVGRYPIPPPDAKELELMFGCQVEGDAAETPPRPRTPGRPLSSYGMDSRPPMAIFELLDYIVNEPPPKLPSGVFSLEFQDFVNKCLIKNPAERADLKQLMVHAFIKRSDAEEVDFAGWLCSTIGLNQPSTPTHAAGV

The test addresses MEK1 (Homo sapiens, UniProt Q02750, DEL33-52/S218E/S222D). The test is described as follows: MEK1 inhibition, ERK1/FI-Erktide fluorescence polarization assay with IMAP beads.
Regarding `Cn1c(=O)c(F)c(Nc2ccc(NS(C)(=O)=O)cc2F)c2c(=O)n(C[C@@H](O)CO)cnc21` [Example 23, (R)—N-(4-(3-(2,3-Dihydroxypropyl)-6-fluoro-8-methyl-4,7-dioxo-3,4,7,8-tetrahydropyrido[2,3-d]pyrimidin-5-ylamino)-3-fluorophenyl)methanesulfonamide], the pIC50 was at most 7.80.

For `Cn1c(=O)c(F)c(Nc2ccc(I)cc2F)c2c(=O)n(C(CO)CO)cnc21` [Example 25, 3-(1,3-Dihydroxypropan-2-yl)-6-fluoro-5-(2-fluoro-4-iodophenylamino)-8-methylpyrido[2,3-d]pyrimidine-4,7(3H,8H)-dione], the pIC50 was at least 8.30. `Cn1c(=O)cc(Nc2ccc(I)cc2F)c2c(=O)n(Cc3ccccc3)cnc21` [Example 42, 3-Benzyl-5-(2-fluoro-4-iodophenylamino)-8-methylpyrido[2,3-d]pyrimidine-4,7(3H,8H)-dione]: the pIC50 was at most 7.80.

`Cn1c(=O)c(F)c(Nc2ccc(I)cc2F)c2c(=O)n(C[C@H](O)CO)cnc21` [Example 19, (S)-3-(2,3-Dihydroxypropyl)-6-fluoro-5-(2-fluoro-4-iodophenylamino)-8-methylpyrido[2,3-d]pyrimidine-4,7(3H,8H)-dione] showed a pIC50 of at least 8.30. Next, `COC(=O)Cn1cnc2c(c(Nc3ccc(I)cc3F)cc(=O)n2C)c1=O` [Example 3, Methyl 2-(5-(2-fluoro-4-iodophenylamino)-8-methyl-4,7-dioxo-7,8-dihydropyrido[2,3-d]pyrimidin-3(4H)-yl)acetate]: at most 7.80. Regarding `Cc1c(Nc2ccc(Br)cc2F)c2c(=O)n(C[C@@H](O)CO)cnc2n(C)c1=O` [Example 10, (R)-5-(4-Bromo-2-fluorophenylamino)-3-(2,3-dihydroxypropyl)-6,8-dimethylpyrido[2,3-d]pyrimidine-4,7(3H,8H)-dione], the pIC50 was at most 7.80. Molecule `Cn1c(=O)c(Cl)c(Nc2ccc(Br)cc2F)c2c(=O)n(CCCO)cnc21` [Example 34, 5-(4-Bromo-2-fluorophenylamino)-6-chloro-3-(3-hydroxypropyl)-8-methylpyrido[2,3-d]pyrimidine-4,7(3H,8H)-dione] had a pIC50 of 7.82 to 8.30. With `Cn1c(=O)c(F)c(Nc2ccc(I)cc2F)c2c(=O)n(C[C@@H](O)CO)cnc21` [Example 18, (R)-3-(2,3-Dihydroxypropyl)-6-fluoro-5-(2-fluoro-4-iodophenylamino)-8-methylpyrido[2,3-d]pyrimidine-4,7(3H,8H)-dione] the figure was at least 8.30; with `Cn1c(=O)c(Cl)c(Nc2ccc(I)cc2F)c2c(=O)n(C[C@H](O)CO)cnc21` [Example 7, (S)-6-Chloro-3-(2,3-dihydroxypropyl)-5-(2-fluoro-4-iodophenylamino)-8-methylpyrido[2,3-d]pyrimidine-4,7(3H,8H)-dione], at least 8.30. With `C#Cc1ccc(Nc2c(C)c(=O)n(C)c3ncn(C[C@H](O)CO)c(=O)c23)c(F)c1` [Example 44, (S)-3-(2,3-Dihydroxypropyl)-5-(4-ethynyl-2-fluorophenylamino)-6,8-dimethylpyrido[2,3-d]pyrimidine-4,7(3H,8H)-dione] the figure was 7.82 to 8.30. The molecule `CN(C)CCn1cnc2c(c(Nc3ccc(I)cc3F)cc(=O)n2C)c1=O` [Example 37, 3-(2-(Dimethylamino)ethyl)-5-(2-fluoro-4-iodophenylamino)-8-methylpyrido[2,3-d]pyrimidine-4,7(3H,8H)-dione] had a pIC50 of at most 7.80. With `C#Cc1ccc(Nc2c(C)c(=O)n(C)c3ncn(C[C@@H](O)CO)c(=O)c23)c(F)c1` [Example 16, (R)-3-(2,3-Dihydroxypropyl)-5-(4-ethynyl-2-fluorophenylamino)-6,8-dimethylpyrido[2,3-d]pyrimidine-4,7(3H,8H)-dione], the negative logarithm of the IC50 (pIC50) was 7.82 to 8.30. With `Cn1c(=O)c(Cl)c(Nc2ccc(I)cc2F)c2c(=O)n(CCO)cnc21` [Example 30, 6-Chloro-5-(2-fluoro-4-iodophenylamino)-3-(2-hydroxyethyl)-8-methylpyrido[2,3-d]pyrimidine-4,7(3H,8H)-dione] the figure was at least 8.30; with `Cn1c(=O)c(Cl)c(Nc2ccc(Br)cc2Cl)c2c(=O)n(CCCO)cnc21` [Example 36, 5-(4-Bromo-2-chlorophenylamino)-6-chloro-3-(3-hydroxypropyl)-8-methylpyrido[2,3-d]pyrimidine-4,7(3H,8H)-dione], at most 7.80; with `Cc1c(Nc2ccc(Br)cc2F)c2c(=O)n(C[C@H](O)CO)cnc2n(C)c1=O` [Example 9, (S)-5-(4-Bromo-2-fluorophenylamino)-3-(2,3-dihydroxypropyl)-6,8-dimethylpyrido[2,3-d]pyrimidine-4,7(3H,8H)-dione], at most 7.80. Next, `Cn1c(=O)c(Cl)c(Nc2ccc(Br)cc2F)c2c(=O)n(C[C@@H](O)CO)cnc21` [Example 29, (R)-5-(4-Bromo-2-fluorophenylamino)-6-chloro-3-(2,3-dihydroxypropyl)-8-methylpyrido[2,3-d]pyrimidine-4,7(3H,8H)-dione]: 7.82 to 8.30; `Cc1c(Nc2ccc(I)cc2F)c2c(=O)n(CCO)cnc2n(C)c1=O` [Example 14, 5-(2-Fluoro-4-iodophenylamino)-3-(2-hydroxyethyl)-6,8-dimethylpyrido[2,3-d]pyrimidine-4,7(3H,8H)-dione]: at least 8.30; `Cc1c(Nc2ccc(Br)cc2F)c2c(=O)n(CCO)cnc2n(C)c1=O` [Example 11, 5-(4-Bromo-2-fluorophenylamino)-3-(2-hydroxyethyl)-6,8-dimethylpyrido[2,3-d]pyrimidine-4,7(3H,8H)-dione]: at most 7.80.

In the case of `Cn1c(=O)cc(Nc2ccc(Br)cc2Cl)c2c(=O)n(CCCO)cnc21` [Example 35, 5-(4-Bromo-2-chlorophenylamino)-3-(3-hydroxypropyl)-8-methylpyrido[2,3-d]pyrimidine-4,7(3H,8H)-dione], the pIC50 is at most 7.80. Turning to `C#Cc1ccc(Nc2c(F)c(=O)n(C)c3ncn(C[C@@H](O)CO)c(=O)c23)c(F)c1` [Example 22, (R)-3-(2,3-dihydroxypropyl)-5-(4-ethynyl-2-fluorophenylamino)-6-fluoro-8-methylpyrido[2,3-d]pyrimidine-4,7(3H,8H)-dione], the pIC50 was at least 8.30.

The molecule `CC(O)Cn1cnc2c(c(Nc3ccc(I)cc3F)cc(=O)n2C)c1=O` (centres unmarked) [Example 38, 5-(2-Fluoro-4-iodophenylamino)-3-(2-hydroxypropyl)-8-methylpyrido[2,3-d]pyrimidine-4,7(3H,8H)-dione] had a pIC50 of at most 7.80. Next, `C#Cc1ccc(Nc2c(F)c(=O)n(C)c3ncn(C[C@H](O)CO)c(=O)c23)c(F)c1` [Example 21, (S)-3-(2,3-Dihydroxypropyl)-5-(4-ethynyl-2-fluorophenylamino)-6-fluoro-8-methylpyrido[2,3-d]pyrimidine-4,7(3H,8H)-dione]: 7.82 to 8.30; `Cn1c(=O)c(F)c(Nc2ccc(I)cc2F)c2c(=O)n(OC[C@H](O)CO)cnc21` [Example 28, (R)-3-(2,3-Dihydroxypropoxy)-6-fluoro-5-(2-fluoro-4-iodophenylamino)-8-methylpyrido[2,3-d]pyrimidine-4,7(3H,8H)-dione]: at least 8.30; `CC(O)Cn1cnc2c(c(Nc3ccc(I)cc3F)c(Cl)c(=O)n2C)c1=O` (centres unmarked) [Example 40, 6-Chloro-5-(2-fluoro-4-iodophenylamino)-3-(2-hydroxypropyl)-8-methylpyrido[2,3-d]pyrimidine-4,7(3H,8H)-dione]: 7.82 to 8.30. Next, `Cn1c(=O)c(Cl)c(Nc2ccc(I)cc2F)c2c(=O)n(CCCO)cnc21` [Example 32, 6-Chloro-5-(2-fluoro-4-iodophenylamino)-3-(3-hydroxypropyl)-8-methylpyrido[2,3-d]pyrimidine-4,7(3H,8H)-dione]: at least 8.30; `Cc1c(Nc2ccccc2F)c2c(=O)n(CCO)cnc2n(C)c1=O` [Example 15, 5-(2-Fluorophenylamino)-3-(2-hydroxyethyl)-6,8-dimethylpyrido[2,3-d]pyrimidine-4,7(3H,8H)-dione]: at most 7.80. For the molecule `Cn1c(=O)cc(Nc2ccc(Br)cc2F)c2c(=O)n(CCCO)cnc21` [Example 33, 5-(4-Bromo-2-fluorophenylamino)-3-(3-hydroxypropyl)-8-methylpyrido[2,3-d]pyrimidine-4,7(3H,8H)-dione], the pIC50 was at most 7.80. Next, `Cn1c(=O)cc(Nc2ccc(I)cc2F)c2c(=O)n(CCCO)cnc21` [Example 31, 5-(2-Fluoro-4-iodophenylamino)-3-(3-hydroxypropyl)-8-methylpyrido[2,3-d]pyrimidine-4,7(3H,8H)-dione]: at least 8.30. Next, `Cc1c(Nc2ccc(I)cc2F)c2c(=O)n(C(CO)CO)cnc2n(C)c1=O` [Example 43, 3-(1,3-Dihydroxypropan-2-yl)-5-(2-fluoro-4-iodophenylamino)-6,8-dimethylpyrido[2,3-d]pyrimidine-4,7(3H,8H)-dione]: 7.82 to 8.30.
